Tests used:
[1] = test system: K562; assay: Cytotoxicity against human K562 cells assessed as decrease in luminescence after 24 hrs by luminescent cell viability assay; format: functional, cell-based; details: K562, 24 h
[2] = test system: PBMC; assay: Cytotoxicity against human PBMC cells assessed as decrease in luminescence after 24 hrs by luminescent cell viability assay; format: cell-based

| SMILES | IC50 [1] [µM] | IC50 [2] [µM] |
| --- | --- | --- |
| CC(=O)O[C@H]1O[C@H]2O[C@H]3OC(=O)/C(=C\CC4(OC(C)=O)CCCC(C)(C)C4)[C@H]3[C@H]2[C@@H]1OC(C)=O (stereo partly specified) [GRACILIN J] | 15 | 30 |
| CC(=O)O[C@@H]1O[C@H]2OC(=O)[C@H](C)C3=C([C@@]4(C)CCCC(C)(C)C4)CC[C@@H]1[C@H]32 | 2.3 | 4.5 |
| CC(=O)O[C@H]1O[C@H]2O[C@H]3OC(=O)/C(=C\C4CCCC(C)(C)C4)[C@H]3[C@H]2[C@@H]1OC(C)=O (stereo partly specified) [GRACILIN K] | 8.5 | 9 |

Reference: ChEMBL document CHEMBL1153788, “Bioactive diterpene derivatives from the marine sponge Spongionella sp” (J Nat Prod, 2009)
